Measurements: patent publication US10766928B2, “Targeted conformationally-constrained kinked endosomal disrupting peptides” (priority 2012, dated 2020)
Read-outs that look alike come from different tables or passages of the source. Non-standard residues stand in square brackets, D forms with d. Residues, ends and D or L forms follow the SMILES beside them. *: point of attachment. Pentanoyl(5-NH-cholesteryl) = CC(C)CCC[C@@H](C)[C@H]1CC[C@H]2[C@@H]3CC=C4C[C@@H](NCCCCC(=O)*)CC[C@]4(C)[C@H]3CC[C@]12C; Aib = CC(C)(N)C(=O)O; Ahx = NCCCCCC(=O)O; βAla = NCCC(=O)O

Test system: endosomes of Jurkat lymphocytes
Assay: Endosome disruption in Jurkat lymphocytes: release of carboxyfluorescein from disulfide probe Compound 2, flow cytometry
Conditions: 14 h; for Efficacy (% of 1): % of the effect of compound 1, calculated span of dose-response curve, ± standard deviation, Jurkat
Protocol: The effects of the compounds of the invention on human Juikat leukemia cells were evaluated using flow cytometry-based assays of potency, efficacy, and toxicity. […] Analysis of flow cytometry data by non-linear regression was used to determine IC50 values for potency with the efficacy expressed as a percentage. […] Dose-dependent effects on cellular viability after 48 h at 37° C. in culture were also measured by flow cytometry.
The # represents the compound number in accordance with Tables A, B, and C. Concentrations of compound stock solutions were determined by absorbance measurements at 280 nm. Efficacy was determined as % change in cellular fluorescence relative to the maximal response of Compound 1, defined as 100%. Potencies and efficacies in Jurkat lymphocytes were measured by flow cytometry after treatment of cells with the compounds listed and the fluorescent probe Compound 2 (2.5 μM) for 14 hours. Toxicity to this cell line was determined by flow cytometry analysis of light scattering and counterstaining with PI after treatment for 48 h at 37° C. in culture. […] N.D., not determined.
Cells were treated with fluorescent molecular probe Compound 2 (2.5 μM) and endosome disruptors for 14 hours at 37° C. Enhanced cellular fluorescence resulting from release of the pH-sensitive fluorophore Compound 3 into the cytoplasm was quantified by flow cytometry.
Natural amino acids are represented by single letter codes. Codes for non-standard elements are as follows: Ch1: (3β-Cholest-5-en-3-yl-ammonio)pentanoyl; Ch2: (Cholester-3-yl)oxy-βAla-βAla; X: ε-Ahx; U: Aib; PB: Pacific Blue fluorophore. O: 3-(2-(2-(2-aminoethoxy)ethoxy)ethoxy)propanyl.

[1] = read-out: Potency, Table 2, EC50 ± standard deviation, Jurkat lymphocytes, disulfide-linked fluorescent probe (2.5 μM)

For `CC(C)CCC[C@@H](C)[C@H]1CC[C@H]2[C@@H]3CC=C4C[C@@H](NCCCCC(=O)NCCC(=O)N[C@@H](CCC(=O)O)C(=O)N[C@@H](CCC(=O)O)C(=O)NCCCCCC(=O)N[C@@H](CO)C(=O)N[C@@H](CO)C(=O)N[C@@H](C)C(=O)N[C@@H](Cc5c[nH]c6ccccc56)C(=O)N[C@@H](Cc5c[nH]c6ccccc56)C(=O)N[C@@H](CO)C(=O)N[C@@H](Cc5ccc(O)cc5)C(=O)N[C@@H](Cc5c[nH]c6ccccc56)C(=O)N5CCC[C@H]5C(=O)N5CCC[C@H]5C(=O)N[C@H](C(=O)N[C@@H](C)C(N)=O)C(C)C)CC[C@]4(C)[C@H]3CC[C@]12C` [Compound 6, R = BEEXSSAWWSYWPPVA-CONH2] ({Pentanoyl(5-NH-cholesteryl)-βAla}-EE[Ahx]SSAWWSYWPPVA-NH2), which EC50 is on record?
The EC50 was 3500 nM.

Which “Efficacy (% of 1)” value (Table 2) does the source give for `CC(C)[C@H](NC(=O)[C@@H](NC(=O)[C@@H]1CCCN1C(=O)[C@@H]1CCCN1C(=O)[C@H](Cc1ccc(O)cc1)NC(=O)[C@H](Cc1ccc(O)cc1)NC(=O)[C@H](C)NC(=O)[C@H](Cc1ccc(O)cc1)NC(=O)[C@H](Cc1ccc(O)cc1)NC(=O)[C@H](C)NC(=O)[C@H](Cc1ccc(O)cc1)NC(=O)[C@H](Cc1ccc(O)cc1)NC(=O)C(C)(C)NC(=O)C(C)(C)NC(=O)C(C)(C)NC(=O)C(C)(C)N)C(C)C)C(N)=O` [Compound 85] (H-[Aib][Aib][Aib][Aib]YYAYYAYYPPVV-NH2) here?
The value was >125%.

And the EC50 [1]?
The EC50 was 4000 ± 1000 nM.

With Ch1-EEOOUUUUYYYYPPVV-NH2 [Compound 86] as the compound, how does the “Efficacy (% of 1)” value (Table 2) read?
Its value is 125 ± 10%.

And the EC50 [1]?
Its EC50 is 80 ± 10 nM.

Which EC50 does the source give for `CC(C)CCC[C@@H](C)[C@H]1CC[C@H]2[C@@H]3CC=C4C[C@@H](NCCCCC(=O)NCCC(=O)N[C@@H](CCC(=O)O)C(=O)N[C@@H](CCC(=O)O)C(=O)NCCCCCC(=O)NC(C)(C)C(=O)NC(C)(C)C(=O)NC(C)(C)C(=O)N[C@@H](Cc5c[nH]c6ccccc56)C(=O)N[C@@H](Cc5c[nH]c6ccccc56)C(=O)N[C@@H](C)C(=O)N[C@@H](Cc5ccc(O)cc5)C(=O)N[C@@H](Cc5c[nH]c6ccccc56)C(=O)N5CCC[C@H]5C(=O)N[C@@H](C)C(=O)N[C@H](C(=O)N[C@@H](C)C(N)=O)C(C)C)CC[C@]4(C)[C@H]3CC[C@]12C` [Compound 17, R = BEEXUUUWWAYWPAVA-CONH2] ({Pentanoyl(5-NH-cholesteryl)-βAla}-EE[Ahx][Aib][Aib][Aib]WWAYWPAVA-NH2) here?
The EC50 was 2100 nM.

Which EC50 does the source give for `CC(C)CCC[C@@H](C)[C@H]1CC[C@H]2[C@@H]3CC=C4C[C@@H](NCCCCC(=O)NCCC(=O)N[C@@H](CCC(=O)O)C(=O)N[C@@H](CCC(=O)O)C(=O)NCCCCCC(=O)NC(C)(C)C(=O)NC(C)(C)C(=O)NC(C)(C)C(=O)N[C@@H](Cc5c[nH]c6ccccc56)C(=O)N[C@@H](Cc5c[nH]c6ccccc56)C(=O)N[C@@H](C)C(=O)N[C@@H](C)C(=O)N[C@@H](Cc5c[nH]c6ccccc56)C(=O)N5CCC[C@H]5C(=O)N5CCC[C@H]5C(=O)N[C@H](C(=O)N[C@@H](C)C(N)=O)C(C)C)CC[C@]4(C)[C@H]3CC[C@]12C` [Compound 14, R = BEEXUUUWWAAWPPVA-CONH2] ({Pentanoyl(5-NH-cholesteryl)-βAla}-EE[Ahx][Aib][Aib][Aib]WWAAWPPVA-NH2) here?
Its EC50 is 1200 nM.

How did the EC50 turn out when `CC(C)CCC[C@@H](C)[C@H]1CC[C@H]2[C@@H]3CC=C4C[C@@H](NCCCCC(=O)NCCC(=O)N[C@@H](CCC(=O)O)C(=O)N[C@@H](CCC(=O)O)C(=O)NCCCCCC(=O)NCCCCCC(=O)NC(C)(C)C(=O)NC(C)(C)C(=O)NC(C)(C)C(=O)NC(C)(C)C(=O)N[C@@H](Cc5ccccc5)C(=O)N[C@@H](Cc5ccccc5)C(=O)N[C@@H](C)C(=O)N[C@@H](Cc5ccccc5)C(=O)N[C@@H](Cc5ccccc5)C(=O)N5CCC[C@H]5C(=O)N5CCC[C@H]5C(=O)N[C@H](C(=O)N[C@@H](C)C(N)=O)C(C)C)CC[C@]4(C)[C@H]3CC[C@]12C` [Compound 22, R = BEEXXUUUUFFAFFPPVA-CONH2] ({Pentanoyl(5-NH-cholesteryl)-βAla}-EE[Ahx][Ahx][Aib][Aib][Aib][Aib]FFAFFPPVA-NH2) was run?
The EC50 was > 10000 nM.
